Assay results as given in patent US10323017B2, “Antioxidants and methods to maximize performance” (University of Ottawa, priority 2015, dated 2019).

Key:
[1] = Cyclic voltammetry (standard potential); assay type: physicochemical; conditions: 1 mM in CH3CN containing 0.1 M Bu4NPF6
Method: A standard potential for diarylamine 5 was measured from its cyclic voltammagram obtained using a BASi potentiostat (available from BASi Analytical Instruments, West La Fayette, Ind., USA) with a glassy carbon working electrode, a platinum counter electrode and a Ag/AgNO3 reference electrode. The diarylamine was dissolved in degassed acetonitrile containing 0.1 M tetrabutylammonium hexafluorophosphate as supporting electrolyte and the current recorded in the range of 0-1 V at a scan rate of 200 mV/s. Standard potentials of the other compounds are reported in previous publications. A cyclic voltammogram of diarylamine 5 (1 mM in CH3CN containing 0.1 M Bu4NPF6) vs. Ag/Ag^+ gave E^0=0.84 V vs. NHE.

[2] = Hexadecane autoxidation at 160° C. (hydroperoxide formation), stirred flow reactor, initiated by tetralin hydroperoxide; conditions: for effect of added palmitic acid on inhibitory activity: 1 mM palmitic acid; for effect of added base 2,4,6-tri-tert-butylpyridine on inhibition of autoxidation: TTBP 1 mM vs. no base
Method: To evaluate the effect of an added sacrificial base on the high-temperature radical-trapping activity of antioxidants, autoxidations of n-hexadecane were carried out at 160° C. in a stirred flow reactor in the absence of or presence of a base, where a constant positive pressure of O2 was used to stir the medium and prevent mass transfer from becoming rate limiting (Igarashi, J., et al., J. Am. Chem. Soc. 1992, 114, 7727; Jensen, R.; et al., J. Am. Chem. Soc. 1979, 101, 7574). Tetralin hydroperoxide (10 mM) was used as a radical initiator since inhibited autoxidations in the absence of an initiator were very slow. At regular intervals, aliquots of the reaction mixture were removed, cooled and the concentration of hydroperoxide products determined by reaction with a developed fluorogenic phosphine (Hanthorn, J. J., et al., Chem. Commun. 2012, 48, 10141). Autoxidations were followed for the first 2% of the reaction, based on hydroperoxide formation, since beyond ca. 3% conversion, the hydroperoxide yield begins to decrease and highly complex mixtures of ketones, alcohols, carboxylic acids and esters arise.
n-Hexadecane (100 mL) was thoroughly degassed with argon and heated to 160° C. while argon was continuously bubbled through the liquid. […] For those experiment where acid or base was present, as noted in the figure captions, they were also added at this point. Aliquots (0.5 mL) were removed every 5 minutes, and allowed to cool to room temperature for analysis. Four duplicates (30 μL) of each sample were loaded into separate wells of a 96-well microplate and the automated reagent dispenser of the microplate reader was used to dilute each sample with tert-amyl alcohol (200 μL) and a solution of fluorogenic phosphine dye solution (20 μL of a 250 μM stock solution in acetonitrile) immediately before reading. The plate was stirred for 8 seconds, allowed to rest for 2 more seconds, and the fluorescence of each well was measured every second for 60 seconds (absorption at 340; emission at 425). The concentration of hydroperoxide was determined from the rate of phosphine oxidation using the rate constant for the reaction of the dye with secondary hydroperoxides in tert-amyl alcohol (k=1.2 M^−1s^−1) assuming pseudo-first-order kinetics. See sample data from an uninhibited autoxidation and one inhibited with diarylamine 4 alongside analogous experiments in the absence of the initiator tetralin hydroperoxide, or O2 (FIGS. 2C-E). Further results are presented in FIGS. 7 to 17 for hexadecane autoxidations and FIGS. 18 and 19 for tetralin autooxidations in the presence and absence of antioxidants, and at varying pH. FIGS. 14-17 correspond to hexadecane autoxidations carried out for diarylamine 4 in the presence of four different bases. FIGS. 7-13 correspond to hexadecane autoxidations carried out for compounds 1-7 and 20 in the presence and absence of a base, specifically, 2,4,6-tri-tert-butylpyridine. FIG. 5A corresponds to hexadecane autoxidations carried out for diarylamine 4 and 7 in the presence and absence of palmitic acid.

[3] = Peroxyl radical clock kinetics; conditions: double reciprocal plot
Method: Peroxyl radical clocking experiments (to determine the inhibition rate constant kinh) for compound 5 were carried out according to our previously published reports (see Hanthorn, J., et al. J. Org. Chem. 2012, 77, 6895). Inhibition rate constants of the other compounds are as reported previously. A double reciprocal plot was used to obtain km=2.4×10^7 M^−1s^−1 for compound 5.

[4] = pKa measurement by titration of hydrochloride salts with NaOH; assay type: physicochemical; conditions: 4:1 (v:v) CH3CN:H2O solution of the hydrochloride salt; in 4:1 CH3CN:H2O; read-out: pKa of the conjugate acid
Method: Solutions of the hydrochloride salts of diarylamines 1-7 (1 mM) were made up in 4:1 CH3CN:H2O (3.0 mL) and the pH was measured using an Accument Electrode microbe referenced to Ag/Ag^+ as a function of added volumes of NaOH (10 mM). […] The titration curves for the diarylamines are shown in FIGS. 6A and 6B (averages of triplicate experiments), and the pKas reported in the manuscript correspond to the pH when 0.5 molar equivalents of NaOH were added to the solution.

[5] = Tetralin autoxidation at 70° C. initiated by azobis(α-tetralin); conditions: hexanoic acid 50 μM, antioxidant 2 μM
Method: Fresh tetralin was prepared by passing it through a column of silica. Tetralin (1.0 mL) was added to a glass vial, followed by chlorobenzene (1.0 mL). A magnetic Teflon-coated stir bar was added, and the vial was capped with a rubber septum. The vial was then placed in a heating block at 70° C. for 5 minutes. Antioxidant (4, 7) (0.002 mmol) were added. For those experiment where acid was present, as noted in the figure captions, hexanoic acid (0.050 mmol) was also added at this point. Azobis(α-tetralin) (0.1 mmol) was added as the initiator. The solution was stirred for 30 s and the first sample was taken. 100 μL samples were taken at regular intervals and added to 900 μL of a solution containing 2.2 mM benzyl alcohol, 10 mM butylated-hydroxytoluene, and 10 mM triphenylphosphine in 2% isopropanol/hexanes (HPLC grade). Samples were analysed using a Waters 2695 Alliance HPLC (2.0% iPrOH/hexanes, 1.6 ml min^−1; 10 min; Sunfire Silica column (5 μm, 4.6×250 mm)) and analysed by UV absorbance.

[6] = Diarylamine stability to oxygen at 160° C. in n-hexadecane; assay type: physicochemical
Method: n-Hexadecane (100 mL) was thoroughly degassed with argon and then heated to 160° C. while argon was continuously bubbled through the liquid. Once the temperature stabilized, 2.5 mmol of diarylamines 1-7 were added to the solution and the flow of argon was replaced with 02. Aliquots (100 μL) were removed every 10 minutes, and added to 900 μL of a 2.2 mM solution of benzyl alcohol (internal standard) in 2% isopropanol/hexanes (HPLC grade). Samples were analysed using a Waters 2695 Alliance HPLC at a flow rate of 2.1 mL min^−1 (8.0% PrOH/hexanes) on a Sunfire Silica column (5 μm, 4.6×250 mm) and determined by their UV absorbance.

[7] = TTBP 1 mM, 40 μM antioxidant, 160° C.

Row | SMILES | inhibition of autoxidation in the presence of added base, compared with 7 [2, 7] | pKa [4] | effect of added palmitic acid on inhibitory activity ([2]; 40 μM antioxidant, 160° C.) | effect of added base 2,4,6-tri-tert-butylpyridine on inhibition of autoxidation ([2]; 40 μM antioxidant, 160° C.) | further results
1 | CCCCCCc1ncc(Nc2cnc(N(CCCC)CCCC)nc2)cn1 [Compound 5, N^2,N^2-Dibutyl-N^5-(2-hexylpyrimidin-5-yl)pyrimidine-2,5-diamine] | particularly good | 8.3 ± 0.1 | – | – | standard potential E^0 [1]: 0.84 V vs. NHE; inhibition rate constant kinh (printed km) [3]: 2.4e+07 M⁻¹ s⁻¹
2 | CCCCCCN(CCCCCC)c1ncc(Nc2ccccc2)cn1 [Compound 4, N^2,N^2-Dihexyl-N^5-phenylpyrimidine-2,5-diamine] | particularly good | 8.2 ± 0.2 | disrupt the inhibitory activity | unprecedented inhibited period | difference in Δt2% (delay to reach [ROOH]=2%) relative to 7 ([2]; 40 μM antioxidant, TTBP 1 mM, 160° C.): 12.5 fold; effect of other bases on activity ([2]; cesium carbonate, potassium carbonate, or Primene 81-R (1 mM), 160° C.): rescued
3 | c1ccc(Nc2ccccc2)cc1 [Compound 7, reference compound] | – | 4.6 ± 0.3 | unchanged | no effect | effect of added acid on antioxidant activity [5]: does not affect the activity; effect of added base 2,4,6-tri-tert-butylpyridine on inhibition of autoxidation ([2]; 40 μM antioxidant, 160° C., listed as diphenylamine): did not impact the reactivity
4 | CCCCCCCCN(CCCCCCCC)c1ncc(Nc2ccc(C(C)(C)C)cc2)cn1 [Compound 20, N^5-(4-(tert-butyl)phenyl)-N^2,N^2-dioctylpyrimidine-2,5-diamine] | – | – | – | – | stability and reactivity compared with compound 4 ([2]; 40 μM, with and without TTBP 1 mM, 160° C. (FIG. 9)): slightly increased stability and reactivity
5 | CCCCCCN(CCCCCC)c1ccc(Nc2ccccc2)cn1 [Compound 3, N^2,N^2-Dihexyl-N^5-phenylpyridine-2,5-diamine] | superior to 7 | 8.4 ± 0.1 | – | – | stability to O2 [6]: relatively unstable
6 | CCCCN(CCCC)c1ncc(Nc2cnc(N(CCCC)CCCC)nc2)cn1 [Compound 2, N^2,N^2-Dibutyl-N^5-(2-(dibutylamino)pyrimidin-5-yl)pyrimidine-2,5-diamine] | particularly good | 8.8 ± 0.1 | – | – | –
